This is an account of results in patent US20260242390A1, “TOTAL SYNTHESES OF PORTIMINE A AND ANALOGUES THEREOF AS SMALL MOLECULE MODULATORS OF NMD3” (priority 2023, published 2026).

Data set [1] concerns human T-cell acute lymphoblastic leukaemia (T-ALL) cell lines. Conditions: cited from earlier work.
Data set [2] concerns normal murine haematopoietic cells. The settings on record: cited from earlier work.
Data set [3] has as its system Jurkat cells. Kind of data set: Initial SAR: activity of PAL functionalized PTMA analogs. It is filed as cell-based, human. The settings on record: in the concentrate range. The text has this:
FIG. 3. Initial SAR studies: Assessing activity of PAL functionalized PTMA analogs. […] (A) PA and Ph-PA show less toxic to healthy PBMCs compared to Jurkat cells. […] (B) Immunoblot of caspase-3 in Jurkat and PBMCs with indicated conditions.
• 1) Portimine A and its functional analogs show stereo-selective acute toxicity in cancer cells (FIG. 1). […] (B) Structure of portimine related analogs: phenyl-portimine A (Ph-PA, 36) and epi-portimine A (ePA, 38). Structure of fully functionalized portimine A-based epimeric probe pair: portimine A-diazirine-alkyne (PA-DA, 35-2) and epi-portimine A-diazirine-alkyne (ePA-DA, 35-1). (C) Cell viability analysis of portimine A and analogs. Jurkat cells were treated with increasing concentrations of portimine A and analogs for 24 hours. All presented data as mean of biological replicated experiments (n=3). […] Jurkat cells were treated with portimine A or analogs for 12 hours at 10 nM. […] Structurally related negative control ePA and PB are non-toxic in all cell types in the current concentrate range. PBMCs (25k per well), Jurkat (10k per well). […] Cell cycle analysis in Jurkat cells (FIG. 2). Jurkat cells were treated with 10 nM of indicated compounds for 24 hours, and propodium iodide was used to identify different stages of cells by flow cytometry. […] (A) PA and Ph-PA show less toxic to healthy PBMCs compared to Jurkat cells. […] (B) Immunoblot of caspase-3 in Jurkat and PBMCs with indicated conditions. […] (A) Pharmacokinetic studies of mouse intraperitoneal (i.p.) and oral (p.o.) administration for portimine (n=3). […] Impact of PA [0.3 or 1 mg/kg intraperitoneally] on MC38 tumor growth in WT mice (n=6). (C) Kaplan-Myer survival curve of WT MC38 tumor-bearing mice (n=6) after treatment with PA as described in (D). Mice were euthanized when tumor area exceeded 2000 mm^3. Statistical analysis was performed using ANOVA analysis followed by multiple comparisons test, * p≤0.05. Treatment condition: Jurkat (60 M per condition); PA-DA/ePA-DA concentration: 0.5 uM, PA or ePA: 5 uM; Incubate with probe with or without competitors (PA, ePA) for 30 min; UV irradiated for 20 min. (0.5 uM PA-DA add a no-UV condition), Standard pulldown & biotin-enrichment and western blot analysis (Elute condition: 2× sample buffer+500 uM biotin, boil for 20 mins); Primary antibody NMD3 (ProteinTech, 1:150), Actin (BioRad, 1:10000). […] Cell lysates were fractionated by sucrose gradient (5-50%) and each fraction were analyzed by western blot. eIF6 levels increase in 60S subunit fraction and decrease in ribosome-free fractions after PA treatment. […]

Turning to `O=C(/C=C\n1cnc(-c2cc(C(F)(F)F)cc(C(F)(F)F)c2)n1)NNc1cnccn1` [KPT-330], the “apoptosis in a panel of 14 human T-ALL cell lines” value in data set [1] is “induced rapid apoptosis at low nanomolar concentrations”. The “toxicity to normal murine haematopoietic cells” value in data set [2] is “little toxicity”. As for `CC(=O)O[C@@H]1CC(C)[C@@H]2CC[C@@]3(C[C@@H](O)C4=NCC[C@@]45CCC(c4ccc(C(=O)NCCC6(CCC#N)N=N6)cc4)=C[C@@H]5[C@H](O3)C1=O)O2` (stereo partly drawn) [epi-PTMA-Ac-DA], the “activity of PAL functionalized PTMA analogs” value in data set [3] was “no activity”.
